In ChEMBL document CHEMBL4680301, “Development of a novel acetyl glucose-modified gefitinib derivative to enhance the radiosensitizing effect” (Bioorg Med Chem, 2021):
Activity calls are given as the source filed them. The calls are words filed in the database; no cut-off is given here.

Assays:
HepG2 [1] = assay: Inhibition of GLUT in human HepG2 cells assessed as inhibition of 2-NBDG uptake at 10 uM incubated for 20 mins by fluorescence microplate reader; format: cell-based
A-431 [2] = assay: Cytotoxicity against human A431 cells measured after 24 hrs by WST-1 assay; format: functional, cell-based; conditions: A-431, 24 h
A-431 [3] = assay: Radio-sensitinzing effect in human A431 cells assessed as reduction in surviving fraction incubated at 1 uM for 24 hrs with X-ray followed by measured after 7 days by Giemsa staining relative to control; format: functional; conditions: time 8 day
[4] = Drug metabolism in human A431 cells assessed as 3-((4-((3-Chloro-4-fluorophenyl)amino)-6-(3-morpholinopropoxy)quinazolin-7-yl)oxy)propan-1-ol metabolite formation at 3 uM measured after 24 hrs by HPLC analysis; format: ADME, cell-based; conditions: a-431, 24 h
[5] = Drug metabolism in human A431 cells assessed as 2-((4-((3-Chloro-4-fluorophenyl)amino)-6-(3-morpholinopropoxy)quinazolin-7-yl)oxy)ethan-1-ol metabolite formation at 3 uM measured after 24 hrs by HPLC analysis; format: ADME, cell-based; conditions: a-431, 24 h
HepG2 [6] = assay: Inhibition of GLUT in human HepG2 cells assessed as inhibition of 2-NBDG uptake incubated for 20 mins by fluorescence microplate reader; format: cell-based; conditions: dose 10-30 µM
[7] = Drug metabolism in human A431 cells assessed as 4-((4-((3-Chloro-4-fluorophenyl)amino)-6-(3-morpholinopropoxy)quinazolin-7-yl)oxy)butan-1-ol metabolite formation at 3 uM measured after 24 hrs by HPLC analysis; format: ADME, cell-based; conditions: a-431, 24 h

Structure (SMILES) | inhibition (HepG2 [1]) | IC50 (A-431 [2]) [µM] | fold change (FC) (A-431 [3]) | Drug metabolism [4] | Drug metabolism [5] | inhibition (HepG2 [6]) | Drug metabolism [7]
C=C1[C@@H](C)[C@H]2[C@H](Cc3ccccc3)NC(=O)[C@]23OC(=O)/C=C/[C@H](O)CCC[C@@H](C)C/C=C/[C@H]3[C@@H]1O | Active | – | – | – | – | – | –
CC(=O)OC[C@H]1OC(OCCCOc2cc3ncnc(Nc4ccc(F)c(Cl)c4)c3cc2OCCCN2CCOCC2)[C@H](OC(C)=O)[C@@H](OC(C)=O)[C@@H]1OC(C)=O (stereo partly specified) | – | 36.8 | 0.216 | Metabolite_Detected | – | – | –
CC(=O)OC[C@H]1OC(OCCOc2cc3ncnc(Nc4ccc(F)c(Cl)c4)c3cc2OCCCN2CCOCC2)[C@H](OC(C)=O)[C@@H](OC(C)=O)[C@@H]1OC(C)=O (stereo partly specified) | – | 34.3 | 0.175 | – | Metabolite_Detected | Dose-dependent effect | –
CC(=O)OC[C@H]1OC(OCCCCOc2cc3ncnc(Nc4ccc(F)c(Cl)c4)c3cc2OCCCN2CCOCC2)[C@H](OC(C)=O)[C@@H](OC(C)=O)[C@@H]1OC(C)=O (stereo partly specified) | – | 39.4 | 0.202 | – | – | – | Metabolite_Detected
